Literature values as cited in the PKSmart pharmacokinetics tables (Seal et al. 2025).
*1 amine or outer side, *2 acyl side, *3 side chain or, on linkers, in order; H or OH if unused. Where a SMILES comes first, the peptide text is derived from it. Bridges are numbered along the chain shown (N, C = ends). [ ]: non-standard residue; d: D form. The star is where a group is joined. ξ: configuration not given here. X2 = CC[C@H](C)[C@@H](N[*:1])[C@@H](O)CC(=O)OC(C(=O)C(C)C(=O)[*:2])C(C)C; ξThr(3R)(O-yl) = C[C@@H](O[*:3])C(N[*:1])C(=O)[*:2]; hArg = N=C(N)NCCCC[CH](N)C(=O)O; ξNMeY = CNC(Cc1ccc(O)cc1)C(=O)O; ξNMeL = CNC(CC(C)C)C(=O)O; Pyruvoyl = CC(=O)C(=O)*; ξL = CC(C)CC(N)C(=O)O; ξP = O=C(O)C1CCCN1; Mpa = O=C(O)CCS

Assay: Lombardo, Berellini, Obach 2018, Drug Metab Dispos 46:1466, doi 10.1124/dmd.118.082966
Details: human; for MRT / Vd / clearance / half-life: in vivo, iv; for fraction unbound: plasma

| Structure (SMILES) | MRT [h] | Vd [L/kg] | clearance [mL/min/kg] | half-life [h] | fraction unbound |
| --- | --- | --- | --- | --- | --- |
| O=C(/C=C/c1ccc(O)cc1)C1=C(O)[C@](O)([C@@H]2O[C@H](CO)[C@@H](O)[C@H](O)[C@H]2O)C(O)=C([C@@H]2O[C@H](CO)[C@@H](O)[C@H](O)[C@H]2O)C1=O | 3.6 | 0.2 | 1 | 2.9 | 0.22 |
| CC(C1=C(CCN(C)C)Cc2ccccc21)c1ccccn1 (configuration not stated) | 5.98 | 2.16 | 4.83 | 4.6 | – |
| N=C(N)NCCCCC1NC(=O)CCSSCC(C(N)=O)NC(=O)C2CCCN2C(=O)C(Cc2c[nH]c3ccccc23)NC(=O)C(CC(=O)O)NC(=O)CNC1=O (configuration not stated) ([Mpa][hArg]GDWPC-NH2; disulfide 1-7; configuration not given here) | 2.4 | 0.17 | 1.2 | 4.2 | 0.75 |
| CC[C@H](C)[C@H]1NC(=O)C(NC(=O)C(CC(C)C)N(C)C(=O)C2CCCN2C(=O)C(C)=O)[C@@H](C)OC(=O)C(Cc2ccc(OC)cc2)N(C)C(=O)C2CCCN2C(=O)C(CC(C)C)NC(=O)C(C)C(=O)C(C(C)C)OC(=O)C[C@@H]1O (stereo partly drawn) (Pyruvoyl-[ξP][ξNMeL][ξThr(3R)(O-yl)][X2][ξL][ξP][ξNMeY](Me); ester 3-C) | 14.5 | 6.95 | 8.05 | 16.6 | – |
| CCCC(C)(COC(N)=O)COC(N)=O | 19 | 0.7 | 0.6 | 14 | 1 |
| COC1C(=O)C(C)C[C@H](C)/C=C/C=C/C=C(\C)[C@@H](OC)C[C@@H]2CC[C@@H](C)[C@@](O)(O2)C(=O)C(=O)N2CCCCC2C(=O)O[C@H]([C@H](C)C[C@@H]2CC[C@@H](OC(=O)C(C)(CO)CO)[C@H](OC)C2)CC(=O)C(C)=CC(C)[C@H]1O (some centres not stated) | 10 | 3 | 7.7 | 18 | – |
| CSCCC(N)C(=O)NC(CCC(=O)O)C(=O)NC(Cc1cnc[nH]1)C(=O)NC(Cc1ccccc1)C(=O)NC(CCCN=C(N)N)C(=O)NC(Cc1c[nH]c2ccccc12)C(=O)NCC(=O)O (configuration not stated) | 0.01 | 0.73 | 871 | 0.06 | – |
| COc1ccc2c(c1)N(C[C@H](C)CN(C)C)c1ccccc1S2 | 21 | 12 | 9.9 | 30 | – |
| CC(C)[C@@H](CC[C@@H](C)[C@H]1CC[C@H]2[C@@H]3[C@H](O)C[C@H]4C[C@@H](NCCCNCCCCN)CC[C@]4(C)[C@H]3CC[C@]12C)OS(=O)(=O)O | 3.2 | 0.23 | 1.2 | 9.5 | – |
| CCC1=NC(=O)C2CSSCC/C=C/[C@H](CC(=O)NC(C(C)C)C(=O)N2)OC(=O)C(C(C)C)NC1=O (some centres not stated) | 2.6 | – | 7.4 | 11 | 0.07 |
| C#CCN(Cc1cc2c(=O)nc(C)[nH]c2cc1C)c1ccc(C(=O)NC(CCc2nnn[nH]2)C(=O)O)c(F)c1 (configuration not stated) | 30.4 | 0.53 | 0.29 | 78.5 | 0.01 |
| CCCC[P@@](=O)(O)CCCN | – | – | 1.56 | 2.1 | – |
| CC[C@H](c1ccccc1)c1c(O)c2ccccc2oc1=O | 182 | 0.2 | 0.02 | 126 | 0.57 |
| CC(CCc1ccc2c(c1)OCO2)NCC(O)c1ccc(O)c(C(N)=O)c1 (configuration not stated) | 8.2 | 7.9 | 16 | 11 | – |
| O=C1CCC(N2C(=O)c3ccccc3C2=O)C(=O)N1 (configuration not stated) | 4.3 | 0.95 | 3.4 | 4.7 | 0.4 |
| CCCCc1nc(C)c(CC(=S)N(C)C)c(=O)n1Cc1ccc(-c2ccccc2-c2nnn[nH]2)cc1 | 1.1 | 0.6 | 9.6 | 5.5 | – |
| Nc1nc(=O)c2c([nH]1)NC[C@H](CNc1ccc(C(=O)NC(CCC(=O)O)C(=O)O)cc1)N2C=O (some centres not stated) | 1.1 | 0.27 | 4.1 | 1.1 | – |
| CCc1ccc(Cc2ccc3c(c2)[C@]2(OC3)O[C@H](CO)[C@@H](O)[C@H](O)[C@H]2O)cc1 | 5.1 | 0.63 | 2.07 | 4.7 | 0.46 |
| CCC(C)C(=O)O[C@H]1C[C@@H](C)C=C2C=C[C@H](C)[C@H](CC[C@@H](O)C[C@@H](O)CC(=O)O)[C@H]21 (some centres not stated) | 1.3 | 0.87 | 7.2 | 1.4 | 0.043 |
| CSCCNc1nc(SCCC(F)(F)F)nc2c1ncn2[C@@H]1O[C@H](CO[P@](=O)(O)O[P@](=O)(O)C(Cl)(Cl)P(=O)(O)O)[C@@H](O)[C@H]1O | 0.07 | 0.035 | 9.06 | 0.14 | 0.02 |
| O=C(NCCO[N+](=O)[O-])c1cccnc1 | 2.7 | 1.4 | 8.9 | 3.6 | 0.76 |
| O=NNc1cnccn1 | 0.29 | 0.31 | 15.1 | 0.38 | – |

| Structure (SMILES) | MRT [h] | Vd [L/kg] | clearance [mL/min/kg] | half-life [h] | fraction unbound |
| --- | --- | --- | --- | --- | --- |
| O=C(O[C@H]1C[N+]2(CCCOc3ccccc3)CCC1CC2)C(O)(c1cccs1)c1cccs1 | 1.76 | 4.3 | 48.5 | – | – |
| O=C1OC2(c3ccc(O)cc3Oc3cc(O)ccc32)c2ccccc21 | 1.8 | 0.14 | 1.3 | 1.6 | 0.11 |
| CCc1cc2c(cc1CC)CC(NC[C@H](O)c1ccc(O)c3[nH]c(=O)ccc13)C2 | 72.4 | 19.4 | 4.48 | 92.5 | – |
| COc1cc([C@@H]2c3cc4c(cc3[C@@H](O[C@@H]3O[C@@H]5CO[C@@H](c6cccs6)O[C@H]5[C@H](O)[C@H]3O)[C@H]3COC(=O)C23)OCO4)cc(OC)c1O (some centres not stated) | 37 | 0.41 | 0.19 | 16 | 0.0044 |
| C[C@]12CCC(=O)C=C1CC[C@@H]1[C@@H]2[C@@H](O)C[C@@]2(C)[C@H]1CC[C@]2(O)C(=O)CO | 1.9 | 0.38 | 5.7 | 1.6 | – |
| CCc1cnn2c(NCc3ccc[n+]([O-])c3)cc(N3CCCC[C@H]3CCO)nc12 | 1.1 | 0.32 | 4.65 | 2.1 | – |
| COc1ccc(Cl)cc1C(=O)NCCc1ccc(S(=O)(=O)NC(=O)NC2CCCCC2)cc1 | 1.6 | 0.08 | – | 2.2 | 0.021 |
| CC(C)=c1nc(N(C)S(C)(=O)=O)nc(-c2ccc(F)cc2)c1=CC[C@@H](O)C[C@@H](O)CC(=O)O | 2.6 | 1.7 | 11 | 2 | – |
| CC(CN1CCN(CCOCCO)CC1)CN1c2ccccc2Sc2ccccc21 (configuration not stated) | 4.16 | 4.06 | 16.3 | 3.11 | – |
| CN1CC(C(=O)N[C@]2(C)O[C@]3(O)[C@@H]4CCCN4C(=O)C(Cc4ccccc4)N3C2=O)C[C@@H]2c3cccc4[nH]cc(c34)C[C@H]21 (some centres not stated) | 0.36 | 0.33 | 15.1 | 0.55 | – |
| COc1ccc2c3c1O[C@H]1[C@@H](O)CC[C@H]4[C@@H](C2)N(C)CC[C@@]341 | 4.08 | 1.07 | 4.21 | 3.42 | – |
| CCOc1ccc2ccccc2c1C(=O)NC1C(=O)N2C(C(=O)O)C(C)(C)S[C@H]12 (some centres not stated) | 1.1 | 0.22 | 3.3 | 0.7 | 0.13 |
| C[N+](C)(O)CCCN1c2ccccc2CCc2ccccc21 | 2.6 | 1.9 | 12 | 1.8 | – |
| NS(=O)(=O)c1cc2c(cc1C(F)(F)F)NCNS2(=O)=O | 3.8 | 2.2 | 9.7 | 5.2 | – |
| C#C[C@@]1(O)[C@@H](CO)O[C@H](n2ccc(N)nc2=O)[C@@H]1O | 11.7 | 1.1 | 1.6 | 10.9 | – |
| Cc1ncc(CO)c(CO)c1O | 1.38 | 0.66 | 7.9 | 0.98 | – |
| C[C@@H](Oc1cc(-n2cnc3ccc(CN4CCN(C)CC4)cc32)sc1C(N)=O)c1ccccc1C(F)(F)F | 10 | 12 | 20 | 10.3 | – |
| CC(=O)NCCCS(=O)(=O)O | 1.54 | 0.3 | 3.75 | 3.2 | 1 |
| COc1cc2ncnc(Nc3ccc(F)c(Cl)c3)c2cc1OCCCN1CCOCC1 | 32 | 23 | – | 34 | – |
| CNC(=O)c1ccccc1Sc1ccc2c(/C=C/c3ccccn3)n[nH]c2c1 | – | – | 5 | 4.3 | 0.004 |
| Cc1cc(C)c2c(c1)[C@@H](N(Cc1cc(C(F)(F)F)cc(C(F)(F)F)c1)c1nnn(C)n1)CCCN2CC1CCC(C(=O)O)CC1 (some centres not stated) | 36.1 | 1.82 | 0.84 | 51.9 | 0.001 |
| C#C[C@]1(O)CC[C@H]2[C@@H]3CC=C4CC(=O)CCC4[C@H]3C(=C)C[C@@]21CC (some centres not stated) | 23.6 | 2.87 | 2 | 25 | 0.02 |
